Structures are written as SMILES. A value given as a limit tells only on which side of the number the result lay.

The target of one experiment is MCL-1 (Homo sapiens (Human), UniProt Q07820). As to the kind of experiment: Cell free Mcl-1:Bim affinity assay (fluorescence polarization competition). Format: binding. The conditions noted are these: 15 nM MCL-1, 5 nM FITC-Bim, 1 hour at room temperature; class symbols; read-out: BIM_Ki. The essentials:
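Compounds competed with FITC-labelled Bim peptide (5 nM) for MCL-1 (15 nM) in HEPES/NaCl buffer with 1% DMSO, 1 h at room temperature. Fluorescence polarization (535 nm emission) gave % inhibition versus DMSO and positive controls; IC50 from 10-point curves, converted to Ki by the Nikolovska-Coleska equation.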
Background: Fluorescence polarisation rises when a labelled molecule tumbles more slowly, as on binding a larger partner.

For another experiment, the system named is H929 cells. As to the kind of experiment: Cell viability assay (H929 10 FBS). It is filed as cell-based. The conditions noted are these: Homo sapiens, NCI-H929, 24 hours, read-out: H929_10FBS IC50. The essentials: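 H929 cells, 4000/well, in RPMI 1640 with 10% FBS, sodium pyruvate, HEPES and glucose were exposed to compound 24 h at 37 °C. Viability read as luminescence after 30-60 min at RT with CellTiter-Glo or ATPlite 1 Step.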

Sequence of MCL-1 (Q07820 whole entry): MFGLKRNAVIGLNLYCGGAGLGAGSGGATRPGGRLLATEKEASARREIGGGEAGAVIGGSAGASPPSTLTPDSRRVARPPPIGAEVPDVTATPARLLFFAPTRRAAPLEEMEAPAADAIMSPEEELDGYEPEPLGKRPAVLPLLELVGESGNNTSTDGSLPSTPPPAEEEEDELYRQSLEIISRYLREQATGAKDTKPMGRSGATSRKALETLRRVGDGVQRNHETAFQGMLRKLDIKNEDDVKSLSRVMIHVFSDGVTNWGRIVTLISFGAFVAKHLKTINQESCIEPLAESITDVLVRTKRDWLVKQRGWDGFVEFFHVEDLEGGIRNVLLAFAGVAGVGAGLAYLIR

On to `CCN1C/C=C/[C@H](O)[C@@H]2CC[C@H]2CN2C[C@@]3(CCCc4cc(Cl)ccc43)COc3ccc(cc32)S(=O)(=O)NC(=O)C1(C)C` [Example 219, (3R,6R,7S,8E,22S)-6′-Chloro-7-hydroxy-11-ethyl-12,12-dimethyl-15,15-dioxo-spiro[20-oxa-15-thia-1,11,14-triazatetracyclo[14.7.2.03,6.019,24]pentacosa-8,16,18,24-tetraene-22,1′-tetralin]-13-one], for which the Ki at MCL-1 is 1 to 100 nM. Further, in the experiment with H929 cells, the IC50 was below 500 nM.
For `CCN1C/C=C/[C@H](OC(=O)NC2CCOCC2)[C@@H]2CC[C@H]2CN2C[C@@]3(CCCc4cc(Cl)ccc43)COc3ccc(cc32)S(=O)(=O)NC(=O)C1(C)C` [Example 220, [(3R,6R,7S,8E,22S)-6′-Chloro-11-ethyl-12,12-dimethyl-13,15,15-trioxo-spiro[20-oxa-15-thia-1,11,14-triazatetracyclo[14.7.2.03,6.019,24]pentacosa-8,16,18,24-tetraene-22,1′-tetralin]-7-yl]N-tetrahydropyran-4-ylcarbamate] the same measures were below 1 nM and below 500 nM.
Regarding `CCN1C/C=C/[C@H](OC(=O)N2CCOCC2)[C@@H]2CC[C@H]2CN2C[C@@]3(CCCc4cc(Cl)ccc43)COc3ccc(cc32)S(=O)(=O)NC(=O)C1(C)C` [Example 221, [(3R,6R,7S,8E,22S)-6′-Chloro-11-ethyl-12,12-dimethyl-13,15,15-trioxo-spiro[20-oxa-15-thia-1,11,14-triazatetracyclo[14.7.2.03,6.019,24]pentacosa-8,16,18,24-tetraene-22,1′-tetralin]-7-yl]morpholine-4-carboxylate], the Ki on MCL-1 is below 1 nM. Further, the half-inhibitory concentration (IC50) in the experiment with H929 cells was below 500 nM.
The matching figures for `CCN1C/C=C/[C@H](OC(=O)N2CCC(OC)CC2)[C@@H]2CC[C@H]2CN2C[C@@]3(CCCc4cc(Cl)ccc43)COc3ccc(cc32)S(=O)(=O)NC(=O)C1(C)C` [Example 222, [(3R,6R,7S,8E,22S)-6′-Chloro-11-ethyl-12,12-dimethyl-13,15,15-trioxo-spiro[20-oxa-15-thia-1,11,14-triazatetracyclo[14.7.2.03,6.019,24]pentacosa-8,16,18,24-tetraene-22,1′-tetralin]-7-yl] 4-methoxypiperidine-1-carboxylate]: below 1 nM and below 500 nM.
For `CCN1C/C=C/[C@H](OC(=O)N2CC(NC)C2)[C@@H]2CC[C@H]2CN2C[C@@]3(CCCc4cc(Cl)ccc43)COc3ccc(cc32)S(=O)(=O)NC(=O)C1(C)C` [Example 223, [(3R,6R,7S,8E,22S)-6′-Chloro-11-ethyl-12,12-dimethyl-13,15,15-trioxo-spiro[20-oxa-15-thia-1,11,14-triazatetracyclo[14.7.2.03,6.019,24]pentacosa-8,16,18,24-tetraene-22,1′-tetralin]-7-yl] 3-(methylamino)azetidine-1-carboxylate] the same measures were below 1 nM and below 500 nM.
Take `CCN1C/C=C/[C@H](OC(=O)N2CC(N(C)C)C2)[C@@H]2CC[C@H]2CN2C[C@@]3(CCCc4cc(Cl)ccc43)COc3ccc(cc32)S(=O)(=O)NC(=O)C1(C)C` [Example 224, [(3R,6R,7S,8E,22S)-6′-Chloro-11-ethyl-12,12-dimethyl-13,15,15-trioxo-spiro[20-oxa-15-thia-1,11,14-triazatetracyclo[14.7.2.03,6.019,24]pentacosa-8,16,18,24-tetraene-22,1′-tetralin]-7-yl] 3-(dimethylamino)azetidine-1-carboxylate]: the Ki on MCL-1 was below 1 nM. The 50% inhibitory concentration (IC50) in the experiment on H929 cells is below 500 nM.
In the case of `CCN1C/C=C/[C@H](OC(=O)N2CCN(CCOC)CC2)[C@@H]2CC[C@H]2CN2C[C@@]3(CCCc4cc(Cl)ccc43)COc3ccc(cc32)S(=O)(=O)NC(=O)C1(C)C` [Example 225, [(3R,6R,7S,8E,22S)-6′-Chloro-11-ethyl-12,12-dimethyl-13,15,15-trioxo-spiro[20-oxa-15-thia-1,11,14-triazatetracyclo[14.7.2.03,6.019,24]pentacosa-8,16,18,24-tetraene-22,1′-tetralin]-7-yl] 4-(2-methoxyethyl)piperazine-1-carboxylate], the Ki at MCL-1 was 1 to 100 nM. In the experiment with H929 cells, the half-inhibitory concentration (IC50) is below 500 nM.
The matching figures for `CN(C(=O)O[C@H]1/C=C/CN(C)C(C)(C)C(=O)NS(=O)(=O)c2ccc3c(c2)N(C[C@@H]2CC[C@H]21)C[C@@]1(CCCc2cc(Cl)ccc21)CO3)[C@H]1CCOC1` [Example 226, [(3R,6R,7S,8E,22S)-6′-Chloro-11,12,12-trimethyl-13,15,15-trioxo-spiro[20-oxa-15-thia-1,11,14-triazatetracyclo[14.7.2.03,6.019,24]pentacosa-8,16,18,24-tetraene-22,1′-tetralin]-7-yl] N-methyl-N-[(3S)-tetrahydrofuran-3-yl]carbamate]: below 1 nM and below 500 nM.
Regarding `CNC(=O)O[C@H]1/C=C/COC2(CC2)C(=O)NS(=O)(=O)c2ccc3c(c2)N(C[C@@H]2CC[C@H]21)C[C@@]1(CCCc2cc(Cl)ccc21)CO3` [Example 227, [(3R,6R,7S,8E,22S)-6′-Chloro-12,12-ethylene-13,15,15-trioxo-spiro[11,20-dioxa-15-thia-1,14-diazatetracyclo[14.7.2.03,6.019,24]pentacosa-8,16,18,24-tetraene-22,1′-tetralin]-7-yl] N-methylcarbamate], the Ki on MCL-1 was below 1 nM. The concentration for half-maximal inhibition (IC50) in the experiment with H929 cells is below 500 nM.
With `CCO[C@@H]1CCN(C(=O)O[C@H]2/C=C/COC3(CCC3)C(=O)NS(=O)(=O)c3ccc4c(c3)N(C[C@@H]3CC[C@H]32)C[C@@]2(CCCc3cc(Cl)ccc32)CO4)C1` [Example 228, [(3R,6R,7S,8E,22S)-6′-Chloro-12,12-(1,3-propylene)-13,15,15-trioxo-spiro[11,20-dioxa-15-thia-1,14-diazatetracyclo[14.7.2.03,6.019,24]pentacosa-8,16,18,24-tetraene-22,1′-tetralin]-7-yl] (3R)-3-ethoxypyrrolidine-1-carboxylate], the Ki on MCL-1 was below 1 nM. For the same compound, the IC50 with H929 cells is below 500 nM.
For `CO[C@@H]1CCN(C(=O)O[C@H]2/C=C/COC3(CCC3)C(=O)NS(=O)(=O)c3ccc4c(c3)N(C[C@@H]3CC[C@H]32)C[C@@]2(CCCc3cc(Cl)ccc32)CO4)C1` [Example 229, [(3R,6R,7S,8E,22S)-6′-Chloro-12,12-(1,3-propylene)-13,15,15-trioxo-spiro[11,20-dioxa-15-thia-1,14-diazatetracyclo[14.7.2.03,6.019,24]pentacosa-8,16,18,24-tetraene-22,1′-tetralin]-7-yl] (3S)-3-methoxypyrrolidine-1-carboxylate] the same measures were below 1 nM and below 500 nM.
Consider `CCOC1CN(C(=O)O[C@H]2/C=C/COC3(CCC3)C(=O)NS(=O)(=O)c3ccc4c(c3)N(C[C@@H]3CC[C@H]32)C[C@@]2(CCCc3cc(Cl)ccc32)CO4)C1` [Example 230, [(3R,6R,7S,8E,22S)-6′-Chloro-12,12-(1,3-propylene)-13,15,15-trioxo-spiro[11,20-dioxa-15-thia-1,14-diazatetracyclo[14.7.2.03,6.019,24]pentacosa-8,16(25),17,19(24)-tetraene-22,1′-tetralin]-7-yl]-N,N-1,3-(2-ethoxy)propylene carbamate], for which the Ki on MCL-1 is below 1 nM. In the experiment with H929 cells, the half-inhibitory concentration (IC50) is below 500 nM.

As a reminder, the IC50 is the midpoint of a concentration-inhibition curve.

These data come from patent US11130769B2 (Prelude Therapeutics Incorporated, priority 2018, dated 2021).
